Test results from patent US20190315775A1, “MODIFIED […] AND PHARMACEUTICAL COMPOSITION HAVING SAME AS ACTIVE INGREDIENT” (KEIO UNIVERSITY, priority 2016, published 2019).

Assays:
[1] = Stability in medium (containing FBS); format: in vitro ADME
Text: (§1) Subsequently, PEG11(E)-TC11 was examined for stability in mouse blood plasma (A) and in medium (B). […] Such degradation is considered to result from a small amount of esterase in FBS (fetal calf serum) contained in the medium.

[2] = Stability in mouse blood plasma; format: in vitro ADME
Text: as §1

[3] = system: various high-risk MM cells (KMM1, KMS11, KMS21, KMS26, KMS27, KMS28, KMS34, MUM24); assay: MTT cell viability of various MM cells, PEG11(E)-TC11 vs lenalidomide (Example 9); format: cell-based, human; details: 48 hours, FIG. 5A
[4] = system: KMS34 high-risk MM cell line; assay: WST-1 cell proliferation inhibition (Example 8), KMS34; format: cell-based; details: Homo sapiens, KMS-34, WST-1, 48 hours, read-out: IC50, cell proliferation inhibitory activity, KMS34
Description: (§2) Similar to Example 7, high-risk MM cell lines were treated with drugs, TC11 and PEG5(E)-TC11 at arbitrary concentrations. […] Specifically, each high-risk MM cell line was prepared at 5×10^5 cells/ml, and then seeded at 50 μl per well (2.5×10^4 cells). Drugs such as TC11, and PEG5(E)-TC11 were added to wells at arbitrary concentrations. WST-1 reagent was added at 48 hours after addition of drugs. After 1 hour of reaction at 37° C. in a CO2 incubator, absorbance was measured at a wavelength of 450 nm using a microplate reader. Cell viability was found from an absorbance ratio using absorbance at 0 μM designated as 100%. IC50 was calculated from a semi-logarithmic chart using Microsoft (registered trademark) Excel.

[5] = system: KMM1 high-risk MM cell line; assay: WST-1 cell proliferation inhibition (Example 8), KMM1; format: cell-based; details: Homo sapiens, KMM-1, WST-1, 48 hours, read-out: IC50, cell proliferation inhibitory activity, KMM1
Description: as §2

KMS11 xenograft = assay: Antitumor effect on KMS11 cancer-bearing mice (Example 17); format: in vivo, ICR/SCID mice; details: Day 9, i.p., equimolar to TC11 60 mg/kgBW
Description: KMS11 was administered to 5-week-old ICR/SCID mice at 2×10^7 cells/mouse via hypodermic injection. Tumor volumes were measured over time, and the day on which the tumor volume exceeded 50 mm^3 was designated as Day 1 and observation was performed for 9 days. […] On the day of administration, these solutions were diluted 10-fold with physiological saline while stirring with Vortex, and then intraperitoneally administered. Tumor volume was calculated by the following formula.
Tumor volume (mm^3)=major axis×minor axis×minor axis×π/6=major axis×minor axis×minor axis×0.5236

cereblon (CRBN) = molecular target: T1, cereblon (CRBN) (Homo sapiens, UniProt Q96SW2); assay: Pull-down assay of cereblon with biotinylated drug on streptavidin beads; format: binding; details: 30° C., 30 minutes, FIG. 9A
T1 construct: recombinant full-length CRBN prepared by the above method was reacted with the beads; T7 tag (N); FLAG tag (C); made in house; host or cells: 293T cells (pcDNA3.3 vector), RIPA extract purified on Ni Sepharose excel
Description: CRBN was prepared as follows. A T7 tag was added 5′-upstream of, and a FLAG tag and a histidine tag were added 3′-downstream of a full-length CRBN gene. The gene was introduced into a pcDNA3.3 expression vector (Invitrogen), thereby constructing a plasmid DNA. Next, a Kozak sequence was added 5′-upstream of the T7 tag using a KOD-Plus-Mutagenesis Kit (TOYOBO). The plasmid DNA was transfected into 293T cells. After 4 days of culture at 37° C. with 5% CO2, cells were extracted with a RIPA buffer (Thermo), and then the extracted fraction was purified using Ni Sepharose excel (GE Healthcare). Since the purified fraction contained imidazole, TBS (Nacalai Tesque) was subjected to buffer exchange. […] Centrifugation was performed to separate the resultants into a flow-through (F) fraction and a bead (B) fraction. Protein bands corresponding to CRBN were separated by SDS-PAGE, and then detected by Western blot. […] Note that “I” indicates “Input fraction”.

T1 sequence (Q96SW2 whole entry): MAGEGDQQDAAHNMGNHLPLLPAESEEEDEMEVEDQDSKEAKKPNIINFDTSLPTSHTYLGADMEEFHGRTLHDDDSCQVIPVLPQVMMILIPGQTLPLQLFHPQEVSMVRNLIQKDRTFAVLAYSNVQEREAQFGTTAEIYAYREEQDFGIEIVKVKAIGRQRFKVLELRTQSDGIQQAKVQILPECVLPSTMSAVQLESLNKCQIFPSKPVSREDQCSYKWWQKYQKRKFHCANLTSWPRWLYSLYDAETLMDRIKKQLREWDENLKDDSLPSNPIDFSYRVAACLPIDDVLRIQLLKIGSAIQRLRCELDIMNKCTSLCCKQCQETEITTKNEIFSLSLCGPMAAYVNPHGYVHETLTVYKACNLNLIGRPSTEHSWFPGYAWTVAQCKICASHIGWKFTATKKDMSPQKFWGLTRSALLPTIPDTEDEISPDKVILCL

Stability in medium [1]	Binding of CRBN to drug immobilized on beads (pull-down, Western blot) (cereblon (CRBN))	Structure (SMILES)	Stability in mouse blood plasma [2]	In vitro cell proliferation inhibitory activity against various high-risk MM cells [3]	IC50 [4]	IC50 [5]	KMS-11 tumor growth compared to control mice (KMS11 xenograft)
slowly degraded even in medium		COCCOCCOCCOCCOCCOCCOCCOCCOCCOCCOCCOCCC(=O)OCCOc1cc2c(cc1N)C(=O)N(c1c(C(C)C)cccc1C(C)C)C2=O [PEG11(E)-TC11]	very quickly hydrolyzed by esterase in mouse blood plasma	significant in vitro cell proliferation inhibitory activity			
	did not bind	CC(C)c1cccc(C(C)C)c1N1C(=O)c2ccc(N)cc2C1=O [TC11, 2-(2,6-di-isopropylphenyl)-5-amino-1H-isoindole-1,3-dione, reference compound]			6.5 µM	5.7 µM	tumor growth was suppressed
